Blank lines part the entries; values can stand above or below the compound they belong to.
Tests used:
Huh7 cells = assay: Growth inhibition curves in Huh7 cells; type: cell-based; conditions: Homo sapiens, Huh-7
FH-B cells [1] = assay: Microtubule sedimentation assay; type: cell-based, human; conditions: for microtubule stability and α-tubulin acetylation in the microtubule fraction: 4 μM FQI1 (15- and 30-minute pellets), 1 μM nocodazole or taxol 30 minutes
Description: (§1) Cell lysate preparation: For microtubule sedimentation assays, cells were treated as indicated in the figure legends, washed with PBS and incubated in 250 μl of microtubule sedimentation assay lysis buffer (100 mM PIPES pH 6.8, 2 M glycerol, 2 mM EGTA, 5 mM MgCl2, 0.1% Triton X-100) supplemented with 1 μM taxol, protease inhibitor cocktail (1:200, Abcam, ab201111) and phosphatase inhibitor cocktail (1:100, Abcam, ab201115) for 20 minutes at 37° C. Two hundred μl of scraped lysate was centrifuged at 21,000×g for 10 minutes at room temperature. Supernatants were saved as soluble fractions. Pellets were resuspended in 200 μl RIPA buffer (50 mM Tris HCl pH 8.0, 150 mM NaCl, 1% IGEPAL CA630, 0.05% deoxycholic acid) supplemented with 1.05% SDS, protease inhibitor cocktail (1:200) and phosphatase inhibitor cocktail (1:100) and incubated at 100° C. for 15 minutes. Pellet suspensions were centrifuged as before and supernatants were saved as pellet fractions.
(§2) Gel electrophoresis and immunoblotting: Microtubule sedimentation fractions and MLC2 analysis samples were separated by electrophoresis through tris-glycine and tricine polyacrylamide gels, respectively, which were transferred to PVDF membranes. Membranes with microtubule sedimentation fractions and MLC2 analysis samples were blocked in 5% milk in TBST and in 5% BSA in TBST, respectively. After overnight incubation with primary antibody at 4° C., the membranes were washed and incubated with secondary antibody for 1 hour at room temperature. Primary antibodies included anti-α-tubulin (1:2,000, Thermo Fisher Scientific, PA529444), anti-acetylated tubulin (1:1,000, Sigma-Aldrich, T7451), anti-phospho MYL9 (1:200, Thermo Fisher Scientific, PA517727), and anti-β-actin (1:5,000, Sigma-Aldrich, A1978). Secondary antibodies included Goat anti-Rabbit HRP (Thermo Fisher Scientific, 31460; 1:10,000 for anti-α-tubulin; 1:5,000 for anti-phospho MYL9), and Goat anti-Mouse HRP (Thermo Fisher Scientific, 62-6520; 1:5,000 for anti-acetylated tubulin; 1:10,000-1:20,000 for anti-β-actin). Membranes were placed into Pierce™ ECL Western Blotting Substrate (Thermo Fisher Scientific, 32106). Autoradiography film was exposed to each membrane for various times to ensure acquisition of non-saturated exposures. Band intensities were quantified from scanned films by densitometry using ImageJ.

RPE cells [2] = assay: Microtubule sedimentation assay; type: cell-based; conditions: for microtubule stability and α-tubulin acetylation in the microtubule fraction: 4 μM FQI1 (15- and 30-minute pellets), 1 μM nocodazole or taxol 30 minutes
Description: as §1, §2

[3] = system: RhoA/ROCK pathway in FH-B cells; assay: Phospho-MLC2 immunoblot (RhoA/ROCK pathway); type: cell-based, human; conditions: 1 μM taxol 30 minutes, then 4 μM FQI1 10 minutes
Description: For analysis of phosphorylated MLC2, FH-B cells were treated as indicated in the figure legend, washed with PBS and incubated for 5 minutes in lysis buffer (50 mM Tris-HCl pH 8.0, 50 mM NaF, 5 mM MgCl2, 150 mM NaCl, 1% Triton X-100) supplemented with Tricine Sample Buffer (Bio-rad, 1610739), protease inhibitor cocktail (1:200), phosphatase inhibitor cocktail (1:100), and 1% ([…]. Lysates were incubated at 100° C. for 15 minutes and centrifuged at 21,000×g for 10 minutes prior to SDS-PAGE.
as §2, with “Secondary antibodies included Goat anti-Rabbit HRP (Thermo Fisher Scientific, 31460; 1:10,000 for anti-α-tubulin; 1:5,000 for anti-phospho MYL9), and Goat anti-Mouse HRP (Thermo Fisher Scientific, 62-6520; 1:5,000 for anti-acetylated tubulin; 1:10,000-1:20,000 for anti-β-actin). Membranes were placed into Pierce™ ECL Western Blotting Substrate (Thermo Fisher Scientific, 32106). Autoradiography film was exposed to each membrane for various times to ensure acquisition of non-saturated exposures.” left out

RPE cells [4] = assay: Cell spreading area and circularity by microscopy; type: cell-based; conditions: 4 μM FQI1 or 1 μM nocodazole, 1 hour
Description: (§3) Cells were washed as before, treated with Phalloidin-iFluor 488 Reagent (abcam, ab176753) for 1 hour in 1-5% BSA in PBS, followed by Hoechst 33342 (Thermo Fisher Scientific, H3570) for 5 minutes. Mounting medium (Fisher Scientific, P10144) and cover slips were applied onto dried cells. Individually discernible cells were imaged on an Olympus Fluoview 10i. Using ImageJ, the phalloidin channel was thresholded and area and circularity values were measured and integrated into swarmplots using Python's seaborn library.

RPE cells [5] = assay: Wound healing assay; type: cell-based; conditions: 4 μM FQI1 or 1 μM nocodazole, monitored 12 hours
Description: Wound healing analysis: Confluent RPE cells were synchronized by incubating with 2 mM thymidine for 18-20 hours. Two intersecting lines were drawn into the confluent cells using a pipette tip. A phase-contrast image was acquired of the intersection point (“0 h” time-point) on an Olympus IX50 inverted microscope, immediately followed by treatment with the respective inhibitor and 2 mM thymidine. Phase-contrast images of the intersection point were acquired every 2 hours for 12 hours, continuing incubation at 37° C. in 5% CO2 in-between time points. Using ImageJ, the distances between each pair of neighboring vertices of the intersection point at each time-point were measured and normalized to the “0 h” sample.
RPE-hTERT Flp-In cells, propagated in DME M:F12 media with 10% fetal bovine serum at 37° C. in a 5% CO2 humidified incubator, were grown to confluence in 6-well tissue culture plates. One day prior to performing the wound healing assay, the medium was exchanged to also include 2 mM thymidine, so that the cells would stop dividing.
A cross-shaped wound was scratched into each well, and the cells imaged by phase contrast microscopy using at 4× magnification using a Olympus IX50 Inverted microscope. Then the cell media was exchanged to include vehicle (DMSO at 0.01%), 50 nM FQI2-34, 100 nM FQI2-34, or 200 nM FQI2-34; 2 mM thymidine was maintained throughout, as well. Cells were imaged again at 2 h, 4h, 6h, and 8h, in order to measure the migration of the cells into the wound.
Each of the 4 lines across the vertices of the “X” were individually measured from each set of images using ImageJ. Relative distances of cell migration into the wound were obtained by subtracting each of the lengths for 2-8 hour timepoints from the length at the 0 hour timepoint for that line and that sample. The averages of the four changes in lengths per sample were then plotted over time for each concentration of FQI2-34, from […], using Prism software. Triplicate technical replicates were performed for each concentration.

FH-B cells [6] = assay: Cell spreading area / cell compaction by microscopy; type: cell-based, human; conditions: 1 μM nocodazole, 30-60 minutes
Description: as §3
For time lapse microscopy, FH-B cells in high μ-dishes were incubated with CellBrite™ Steady Membrane stain (Biotium, 30108-T) for 30-40 minutes in the environmental chamber of a Nikon C2 Si microscope at 37° C. and 5% CO2. Treatments were added to the cells through a syringe to reach final concentrations of 4 μM FQI1 or 0.01% DMSO. Immediately thereafter, a time-lapse series was acquired by imaging every 30 seconds for 30 minutes at 20× magnification.

[7] = Plasma protein binding (PPB), mouse; type: in vitro ADME
[8] = Plasma protein binding (PPB), human; type: in vitro ADME
LSF and β-catenin = target: T1, LSF and β-catenin (Homo sapiens, UniProt Q12800); assay: Immunoprecipitation of β-catenin probed for LSF in CRC cells; type: cell-based; conditions: 1 μM, 16 hours, HT-29 and HCT-116 cells
T1 construct: In both these cell lines, LSF co-immunoprecipitated with β-catenin; endogenous in cells; host or cells: HT-29 and HCT-116
T1 sequence (Q12800 1-502): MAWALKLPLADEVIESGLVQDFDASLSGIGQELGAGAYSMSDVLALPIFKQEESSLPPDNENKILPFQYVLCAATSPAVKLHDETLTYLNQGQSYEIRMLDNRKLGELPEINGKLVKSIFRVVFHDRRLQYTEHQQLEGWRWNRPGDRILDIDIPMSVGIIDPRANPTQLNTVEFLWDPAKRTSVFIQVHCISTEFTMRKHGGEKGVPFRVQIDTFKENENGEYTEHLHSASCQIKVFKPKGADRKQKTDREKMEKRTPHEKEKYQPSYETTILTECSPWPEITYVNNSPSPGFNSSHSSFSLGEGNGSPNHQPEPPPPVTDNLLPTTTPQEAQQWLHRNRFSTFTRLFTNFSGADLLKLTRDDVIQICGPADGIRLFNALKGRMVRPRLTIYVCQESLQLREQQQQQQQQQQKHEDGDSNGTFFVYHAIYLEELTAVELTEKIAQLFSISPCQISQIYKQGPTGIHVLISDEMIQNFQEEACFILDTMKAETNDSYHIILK
Text: Immunoprecipitation: The CRC cells were harvested. Proteins of interest were immunoprecipitated using the indicated antibodies at 1:100 concentration. The eluents were resolved by SDS polyacrylamide gel electrophoresis and probed with the indicated antibodies. All the antibodies for immunoblot and immunoprecipitation were acquired from Cell Signaling and were used at the recommended concentrations.

[9] = 10 μM Y-27632 30 minutes, then 4 μM FQI1 30 minutes

GI50 (Huh7 cells): 71 nM
Structure (SMILES): CCCOc1cc(N(C)C)ccc1-c1cc(=O)[nH]c2cc3c(cc12)OCCO3 [FQI2-137, 9-(4-(dimethylamino)-2-propoxyphenyl)-2,3-dihydro-[1,4]dioxino[2,3-g]quinolin-7(6H)-one]

GI50 (Huh7 cells): 56.2 nM
Structure (SMILES): CCOc1cc(C(F)(F)F)ccc1-c1cc(=O)[nH]c2cc3c(cc12)OCO3 [FQI2F3, 8-(2-ethoxy-4-(trifluoromethyl)phenyl)-[1,3]dioxolo[4,5-g]quinolin-6(5H)-one]

GI50 (Huh7 cells): 56.2 nM
Structure (SMILES): CCOc1cc(Cl)ccc1-c1cc(=O)[nH]c2cc3c(cc12)OCO3 [FQI2Cl, 8-(2-ethoxy-4-chlorophenyl)-[1,3]dioxolo[4,5-g]quinolin-6(5H)-one]

interaction of LSF and β-catenin (co-immunoprecipitation) (LSF and β-catenin): consistently reduced this interaction | fraction unbound [7]: 0.05 | fraction unbound [8]: 0.07
Structure (SMILES): CCOc1cc(N(C)C)ccc1C1CC(=O)Nc2cc3c(cc21)OCCO3 (stereo not shown) [FQI-37, 9-(4-(dimethylamino)-2-ethoxyphenyl)-2,3,8,9-tetrahydro-[1,4]dioxino[2,3-g]quinolin-7(6H)-one]

GI50 (Huh7 cells): 141 nM
Structure (SMILES): CCOc1ccccc1-c1cc(=O)[nH]c2cc3c(cc12)OCO3 [FQI2]

GI50 (Huh7 cells): 56.2 nM
Structure (SMILES): CCOc1cc(F)ccc1-c1cc(=O)[nH]c2cc3c(cc12)OCO3 [FQI2F, 8-(2-ethoxy-4-fluorophenyl)-[1,3]dioxolo[4,5-g]quinolin-6(5H)-one]

interaction of LSF and β-catenin (co-immunoprecipitation) (LSF and β-catenin): consistently reduced this interaction | fraction unbound [7]: 0.05 | fraction unbound [8]: 0.07
Structure (SMILES): CCOc1cc(N(C)C)ccc1C1CC(=O)Nc2cc3c(cc21)OCO3 (stereo not shown) [FQI-34, 8-(4-(dimethylamino)-2-ethoxyphenyl)-7,8-dihydro-[1,3]dioxolo[4,5-g]quinolin-6(5H)-one]

GI50 (Huh7 cells): 20.4 nM
Structure (SMILES): CCOc1cc(Br)ccc1-c1cc(=O)[nH]c2cc3c(cc12)OCO3 [FQI2Br, 8-(4-bromo-2-ethoxyphenyl)-[1,3]dioxolo[4,5-g]quinolin-6(5H)-one]

Continued, compound first:

Structure (SMILES): CCCOc1cc(N(C)C)ccc1-c1cc(=O)[nH]c2cc3c(cc12)OCO3 [FQI2-134, 8-(4-(dimethylamino)-2-propoxyphenyl)-[1,3]dioxolo[4,5-g]quinolin-6(5H)-one]
GI50 (Huh7 cells): 260 nM

Structure (SMILES): C[C@@H](N)[C@H]1CC[C@H](C(=O)Nc2ccncc2)CC1 [Y-27632]
FQI1-induced decline in stable microtubules after Y-27632 pre-exposure (FH-B cells [1]; [9]): quantitatively the same decline in stable microtubules as seen in control cells | FQI1-induced decline in stable microtubules after Y-27632 pre-exposure (RPE cells [2]; [9]): quantitatively the same decline in stable microtubules as seen in control cells

Structure (SMILES): CC(=O)O[C@H]1C(=O)[C@@]2(C)[C@H]([C@H](OC(=O)c3ccccc3)[C@]3(O)C[C@H](OC(=O)[C@H](O)[C@@H](NC(=O)c4ccccc4)c4ccccc4)C(C)=C1C3(C)C)[C@]1(OC(C)=O)CO[C@@H]1C[C@@H]2O [taxol]
microtubule stability and α-tubulin acetylation in the microtubule fraction (FH-B cells [1]): stabilizes and hyperacetylates microtubules | FQI1-induced increase in MLC2 phosphorylation after taxol preincubation [3]: abrogated | microtubule stability and α-tubulin acetylation in the microtubule fraction (RPE cells [2]): stabilizes and hyperacetylates microtubules

Structure (SMILES): COC(=O)Nc1nc2ccc(C(=O)c3cccs3)cc2[nH]1 [nocodazole, reference compound]
microtubule stability and α-tubulin acetylation in the microtubule fraction (FH-B cells [1]): destabilizes and deacetylates microtubules | circularity (RPE cells [4]): significantly more circular in shape | migration of cells into the wound (RPE cells [5]): hindered RPE cells from migrating into the wound | microtubule stability and α-tubulin acetylation in the microtubule fraction (RPE cells [2]): destabilizes and deacetylates microtubules | decrease in cell spreading area (FH-B cells [6]): decrease in cell spreading area was phenocopied

Structure (SMILES): CC(C)COc1cc(N(C)C)ccc1-c1cc(=O)[nH]c2cc3c(cc12)OCO3 [FQI2-234, 8-(4-(dimethylamino)-2-isobutoxyphenyl)-[1,3]dioxolo[4,5-g]quinolin-6(5H)-one]
GI50 (Huh7 cells): 630 nM

Structure (SMILES): CCOc1cc(N(C)C)ccc1-c1cc(=O)[nH]c2cc3c(cc12)OCCO3 [FQI2-37, 9-(4-(dimethylamino)-2-ethoxyphenyl)-2,3-dihydro-[1,4]dioxino[2,3-g]quinolin-7(6H)-one]
fraction unbound [7]: 0.06 | fraction unbound [8]: 0.08 | GI50 (Huh7 cells): 14.2 nM

Structure (SMILES): CC(C)COc1cc(N(C)C)ccc1-c1cc(=O)[nH]c2cc3c(cc12)OCCO3 [FQI2-237, 9-(4-(dimethylamino)-2-isobutoxyphenyl)-2,3-dihydro-[1,4]dioxino[2,3-g]quinolin-7(6H)-one]
GI50 (Huh7 cells): 467 nM
